Data: the supplement of paper PMC10307832

How the values were obtained:
Assay in all cases: relative viability (nuclei count vs DMSO), 5 days (fraction); higher = more cells survive
EKVX = system: EKVX
Summary of the method: (§1)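 Relative viability equals treated-well nuclei counts divided by vehicle-well nuclei counts. Counts came from 4× images of lung cancer cell lines grown in 1536-well plates for 5 days after pin-tool dosing on the day after seeding. Dosing used one drug alone or a fixed anchor-drug dose plus five library-drug doses (not always all listed) in √10 steps, and values are medians of duplicate plates.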

ChaGo-K-1 = system: ChaGo-K-1
Summary of the method: as §1

HCC-827 = system: HCC-827
Summary of the method: as §1

NCI-H441 = system: NCI-H441
Summary of the method: as §1

NCI-H322M = system: NCI-H322M
Summary of the method: as §1

NCI-H1975 = system: NCI-H1975
Summary of the method: as §1

ABC-1 = system: ABC-1
Summary of the method: as §1

SK-MES-1 = system: SK-MES-1
Summary of the method: as §1

NCI-H460 = system: NCI-H460
Summary of the method: as §1

NCI-H2085 = system: NCI-H2085
Summary of the method: as §1

NCI-H2087 = system: NCI-H2087
Summary of the method: as §1

COR-L 105 = system: COR-L 105
Summary of the method: as §1

NCI-H2342 = system: NCI-H2342
Summary of the method: as §1

NCI-H1792 = system: NCI-H1792
Summary of the method: as §1

HCC-366 = system: HCC-366
Summary of the method: as §1

H3255 = system: H3255
Summary of the method: as §1

NCI-H2009 = system: NCI-H2009
Summary of the method: as §1

NCI-H2228 = system: NCI-H2228
Summary of the method: as §1

NCI-H1355 = system: NCI-H1355
Summary of the method: as §1

NCI-H1993 = system: NCI-H1993
Summary of the method: as §1

EPLC-272H = system: EPLC-272H
Summary of the method: as §1

CAL-12T = system: CAL-12T
Summary of the method: as §1

Cc1cn(-c2cc(NC(=O)c3ccc(C)c(Nc4nccc(-c5cccnc5)n4)c3)cc(C(F)(F)F)c2)cn1 [Nilotinib] + N=C(N)NC(=N)NCCc1ccccc1 [Phenformin] (partner 250 µM)
relative viability (EKVX; first compound 0.001 µM): 0.231 | relative viability (EKVX; first compound 0.003162 µM): 0.232 | relative viability (EKVX; first compound 0.01 µM): 0.248 | relative viability (EKVX; first compound 0.03162 µM): 0.214 | relative viability (EKVX; first compound 0.1 µM): 0.236 | relative viability (ChaGo-K-1; first compound 0.001 µM): 0.469 | relative viability (ChaGo-K-1; first compound 0.003162 µM): 0.442 | relative viability (ChaGo-K-1; first compound 0.01 µM): 0.473 | relative viability (ChaGo-K-1; first compound 0.03162 µM): 0.394 | relative viability (ChaGo-K-1; first compound 0.1 µM): 0.315 | relative viability (HCC-827; first compound 0.003162 µM): 0.436 | relative viability (HCC-827; first compound 0.01 µM): 0.384 | relative viability (HCC-827; first compound 0.03162 µM): 0.438 | relative viability (HCC-827; first compound 0.1 µM): 0.384 | relative viability (NCI-H441; first compound 0.001 µM): 0.798 | relative viability (NCI-H441; first compound 0.003162 µM): 0.89 | relative viability (NCI-H441; first compound 0.01 µM): 0.896 | relative viability (NCI-H441; first compound 0.03162 µM): 0.648 | relative viability (NCI-H441; first compound 0.1 µM): 0.881 | relative viability (NCI-H322M; first compound 0.001 µM): 0.781 | relative viability (NCI-H322M; first compound 0.003162 µM): 0.702 | relative viability (NCI-H322M; first compound 0.01 µM): 0.87 | relative viability (NCI-H322M; first compound 0.03162 µM): 0.741 | relative viability (NCI-H322M; first compound 0.1 µM): 0.833 | relative viability (NCI-H1975; first compound 0.001 µM): 0.406 | relative viability (NCI-H1975; first compound 0.003162 µM): 0.438 | relative viability (NCI-H1975; first compound 0.01 µM): 0.413 | relative viability (NCI-H1975; first compound 0.03162 µM): 0.363 | relative viability (NCI-H1975; first compound 0.1 µM): 0.378 | relative viability (ABC-1; first compound 0.001 µM): 0.219 | relative viability (ABC-1; first compound 0.003162 µM): 0.243 | relative viability (ABC-1; first compound 0.01 µM): 0.259 | relative viability (ABC-1; first compound 0.03162 µM): 0.249 | relative viability (ABC-1; first compound 0.1 µM): 0.264 | relative viability (SK-MES-1; first compound 0.001 µM): 0.614 | relative viability (SK-MES-1; first compound 0.003162 µM): 0.734 | relative viability (SK-MES-1; first compound 0.01 µM): 0.74 | relative viability (SK-MES-1; first compound 0.03162 µM): 0.566 | relative viability (SK-MES-1; first compound 0.1 µM): 0.554 | relative viability (NCI-H460; first compound 0.001 µM): 0.298 | relative viability (NCI-H460; first compound 0.003162 µM): 0.805 | relative viability (NCI-H460; first compound 0.01 µM): 1.18 | relative viability (NCI-H460; first compound 0.03162 µM): 0.338 | relative viability (NCI-H460; first compound 0.1 µM): 0.106 | relative viability (NCI-H2085; first compound 0.001 µM): 0.76 | relative viability (NCI-H2085; first compound 0.003162 µM): 0.749 | relative viability (NCI-H2085; first compound 0.01 µM): 0.769 | relative viability (NCI-H2085; first compound 0.03162 µM): 0.493 | relative viability (NCI-H2085; first compound 0.1 µM): 0.581 | relative viability (NCI-H2087; first compound 0.001 µM): 0.403 | relative viability (NCI-H2087; first compound 0.003162 µM): 0.518 | relative viability (NCI-H2087; first compound 0.01 µM): 0.519 | relative viability (NCI-H2087; first compound 0.03162 µM): 0.301 | relative viability (NCI-H2087; first compound 0.1 µM): 0.215 | relative viability (COR-L 105; first compound 0.001 µM): 0.428 | relative viability (COR-L 105; first compound 0.003162 µM): 0.47 | relative viability (COR-L 105; first compound 0.01 µM): 0.581 | relative viability (COR-L 105; first compound 0.03162 µM): 0.409 | relative viability (COR-L 105; first compound 0.1 µM): 0.438 | relative viability (NCI-H2342; first compound 0.001 µM): 0.534 | relative viability (NCI-H2342; first compound 0.003162 µM): 0.614 | relative viability (NCI-H2342; first compound 0.01 µM): 0.556 | relative viability (NCI-H2342; first compound 0.03162 µM): 0.523 | relative viability (NCI-H2342; first compound 0.1 µM): 0.504 | relative viability (NCI-H1792; first compound 0.001 µM): 0.277 | relative viability (NCI-H1792; first compound 0.003162 µM): 0.318 | relative viability (NCI-H1792; first compound 0.01 µM): 0.164 | relative viability (NCI-H1792; first compound 0.03162 µM): 0.203 | relative viability (NCI-H1792; first compound 0.1 µM): 0.259 | relative viability (HCC-366; first compound 0.001 µM): 0.623 | relative viability (HCC-366; first compound 0.003162 µM): 0.584 | relative viability (HCC-366; first compound 0.01 µM): 0.655 | relative viability (HCC-366; first compound 0.03162 µM): 0.257 | relative viability (HCC-366; first compound 0.1 µM): 0.555 | relative viability (H3255; first compound 0.001 µM): 0.382 | relative viability (H3255; first compound 0.003162 µM): 0.303 | relative viability (H3255; first compound 0.03162 µM): 0.403 | relative viability (H3255; first compound 0.1 µM): 0.407 | relative viability (NCI-H2009; first compound 0.001 µM): 0.417 | relative viability (NCI-H2009; first compound 0.003162 µM): 0.464 | relative viability (NCI-H2009; first compound 0.01 µM): 0.463 | relative viability (NCI-H2009; first compound 0.03162 µM): 0.387 | relative viability (NCI-H2009; first compound 0.1 µM): 0.338 | relative viability (NCI-H2228; first compound 0.003162 µM): 0.388 | relative viability (NCI-H2228; first compound 0.01 µM): 0.383 | relative viability (NCI-H2228; first compound 0.03162 µM): 0.259 | relative viability (NCI-H2228; first compound 0.1 µM): 0.278 | relative viability (NCI-H1355; first compound 0.001 µM): 0.451 | relative viability (NCI-H1355; first compound 0.003162 µM): 0.426 | relative viability (NCI-H1355; first compound 0.01 µM): 0.401 | relative viability (NCI-H1355; first compound 0.03162 µM): 0.361 | relative viability (NCI-H1355; first compound 0.1 µM): 0.424 | relative viability (NCI-H1993; first compound 0.001 µM): 0.554 | relative viability (NCI-H1993; first compound 0.003162 µM): 0.55 | relative viability (NCI-H1993; first compound 0.01 µM): 0.522 | relative viability (NCI-H1993; first compound 0.03162 µM): 0.482 | relative viability (NCI-H1993; first compound 0.1 µM): 0.701 | relative viability (EPLC-272H; first compound 0.001 µM): 0.305 | relative viability (EPLC-272H; first compound 0.003162 µM): 0.283 | relative viability (EPLC-272H; first compound 0.01 µM): 0.262 | relative viability (EPLC-272H; first compound 0.03162 µM): 0.234 | relative viability (EPLC-272H; first compound 0.1 µM): 0.298 | relative viability (CAL-12T; first compound 0.001 µM): 0.554 | relative viability (CAL-12T; first compound 0.003162 µM): 0.563 | relative viability (CAL-12T; first compound 0.01 µM): 0.701 | relative viability (CAL-12T; first compound 0.03162 µM): 0.436 | relative viability (CAL-12T; first compound 0.1 µM): 0.47
